# Reference: paper PMC4513223 (Clinical Pharmacokinetics, 2015)
# Like-named read-outs stand apart in the source and are kept apart here.
# What was measured:
# [1] = Non-compartmental plasma pharmacokinetics after a single oral filgotinib dose; assay type: in vivo; conditions: male, human
# [2] = assay type: in vivo, human; conditions: for Tmax / AUC(0-t) / Cmax / concentration at 12 h / concentration at 24 h: oral
# [3] = Population pharmacokinetic model; assay type: in vivo, human; conditions: estimate (% RSE)
# [4] = test system: JAK1 (IL-6-induced STAT1 phosphorylation); assay type: cell-based, human; conditions: sigmoid Emax model, common to filgotinib and metabolite; estimate (% RSE)
# JAK1 = conditions: human whole blood; cited from earlier work
compound,measurement,setting,value
O=C(Nc1nc2cccc(-c3ccc(CN4CCS(=O)(=O)CC4)cc3)n2n1)C1CC1 [Filgotinib],AUC(0-inf),[1]; 10 mg,136 ng·h/mL
same,Cmax,[1]; 10 mg,35.7 ng/mL
same,Tmax,[1]; 10 mg,1 h
same,half-life,[1]; 10 mg,6.38 h
same,AUC(0-inf),[1]; 25 mg,348 ng·h/mL
same,Cmax,[1]; 25 mg,83 ng/mL
same,Tmax,[1]; 25 mg,2.5 h
same,half-life,[1]; 25 mg,5.72 h
same,AUC(0-inf),[1]; 50 mg,771 ng·h/mL
same,Cmax,[1]; 50 mg,247 ng/mL
same,Tmax,[1]; 50 mg,2 h
same,half-life,[1]; 50 mg,5.28 h
same,AUC(0-inf),[1]; 100 mg,1740 ng·h/mL
same,Cmax,[1]; 100 mg,565 ng/mL
same,Tmax,[1]; 100 mg,2 h
same,half-life,[1]; 100 mg,4.91 h
same,AUC(0-inf),[1]; 200 mg,4840 ng·h/mL
same,Cmax,[1]; 200 mg,1160 ng/mL
same,Tmax,[1]; 200 mg,3 h
same,half-life,[1]; 200 mg,5.68 h
same,Tmax,"[2]; male, human, plasma",0.5 to 5 h
same,AUC(0-t),"[2]; male, human, plasma, 25 mg",346 ng·h/mL
same,Cmax,"[2]; male, human, plasma, 25 mg",144 ng/mL
same,Tmax,"[2]; male, human, plasma, 25 mg",0.5 h
same,concentration at 12 h,"[2]; male, human, plasma, 25 mg",3.75 ng/mL
same,AUC(0-t),"[2]; male, human, plasma, 50 mg",758 ng·h/mL
same,Cmax,"[2]; male, human, plasma, 50 mg",211 ng/mL
same,Tmax,"[2]; male, human, plasma, 50 mg",1.5 h
same,concentration at 12 h,"[2]; male, human, plasma, 50 mg",9.52 ng/mL
same,AUC(0-t),"[2]; male, human, plasma, 100 mg",2380 ng·h/mL
same,Cmax,"[2]; male, human, plasma, 100 mg",556 ng/mL
same,Tmax,"[2]; male, human, plasma, 100 mg",3 h
same,concentration at 12 h,"[2]; male, human, plasma, 100 mg",27.8 ng/mL
same,AUC(0-t),"[2]; male, human, plasma, 200 mg",4450 ng·h/mL
same,Cmax,"[2]; male, human, plasma, 200 mg",1200 ng/mL
same,Tmax,"[2]; male, human, plasma, 200 mg",2 h
same,concentration at 24 h,"[2]; male, human, plasma, 200 mg",6.04 ng/mL
same,AUC(0-t),"[2]; male, human, plasma, 300 mg",4400 ng·h/mL
same,Cmax,"[2]; male, human, plasma, 300 mg",1380 ng/mL
same,Tmax,"[2]; male, human, plasma, 300 mg",1.5 h
same,concentration at 24 h,"[2]; male, human, plasma, 300 mg",9.93 ng/mL
same,AUC(0-t),"[2]; male, human, plasma, 450 mg",10200 ng·h/mL
same,Cmax,"[2]; male, human, plasma, 450 mg",2580 ng/mL
same,Tmax,"[2]; male, human, plasma, 450 mg",2.5 h
same,concentration at 24 h,"[2]; male, human, plasma, 450 mg",17.6 ng/mL
same,half-life,"[2]; male, human, plasma, po, elimination half-life, average, oral administration",6 h
same,accumulation at steady state,[2]; repeated dosing,no accumulation
same,time to steady state of plasma concentrations,"[2]; repeated dosing, regardless of dose and regimen (once or twice daily)",≤ 2 days
same,Effect of sex (on V C/F),[3]; covariate effect,2.95 (47.7)
same,Relative increase in bioavailability in RA patients vs healthy volunteers,[3],0.216 (39.0)
same,ka (first-order absorption rate constant),[3]; log-transformed parameter,−0.733 (5.64) /h
same,FRAC300 mg,"[3]; probit-transformed parameter, 300 mg dose",0.375 (23.9)
same,FRAC450 mg,"[3]; probit-transformed parameter, 450 mg dose",0.363 (38.5)
same,log H (hill factor),[4],0.680 (27.7)
same,selectivity for JAK1- over JAK2-dependent signaling,JAK1,30 fold
